Experimental data: paper PMC5218480 (PLoS ONE, 2017)

Tested on: MV-4-11 cells
Test: Gene expression microarray analysis (Affymetrix PrimeView) and GSEA
Assay type: cell-based, human
Parameters: RFU PODN (11730768_x_at) / Fold change /veh PODN (11730768_x_at) / RFU LINC00158 (11744669_a_at) / Fold change /veh LINC00158 (11744669_a_at) / RFU DUSP10 (11751237_a_at) / Fold change /veh DUSP10 (11751237_a_at) / RFU ID3 (11757404_x_at) / Fold change /veh ID3 (11757404_x_at) / RFU PLEKHG5 (11737974_s_at) / Fold change /veh PLEKHG5 (11737974_s_at) / RFU LRRC4B (11730491_at) / Fold change /veh LRRC4B (11730491_at) / RFU GIMAP4 (11747438_a_at) / Fold change /veh GIMAP4 (11747438_a_at) / RFU KRT8 (11758183_x_at) / Fold change /veh KRT8 (11758183_x_at) / RFU CNN1 (11734310_a_at) / Fold change /veh CNN1 (11734310_a_at) / RFU VPS37D (11726825_at) / Fold change /veh VPS37D (11726825_at) / RFU C10orf10 (11716522_x_at) / Fold change /veh C10orf10 (11716522_x_at) / RFU KIR2DL2 /// KIR2DL4 /// KIR2DL5A /// KIR2DL5B /// KIR2DS1 /// KIR2DS2 /// KIR2DS3 /// KIR2DS4 /// KIR3DL3 /// KIR3DL3 /// KIR3DS1 (11738374_at) / Fold change /veh KIR2DL2 /// KIR2DL4 /// KIR2DL5A /// KIR2DL5B /// KIR2DS1 /// KIR2DS2 /// KIR2DS3 /// KIR2DS4 /// KIR3DL3 /// KIR3DL3 /// KIR3DS1 (11738374_at) / RFU C1QL1 (11718748_at) / Fold change /veh C1QL1 (11718748_at) / RFU TMPRSS4 (11747572_a_at) / Fold change /veh TMPRSS4 (11747572_a_at) / RFU HAMP (11756126_x_at) / Fold change /veh HAMP (11756126_x_at) / RFU RNFT2 (11725882_a_at) / Fold change /veh RNFT2 (11725882_a_at) / RFU NR4A2 (11747474_a_at) / Fold change /veh NR4A2 (11747474_a_at) / RFU ABCC12 (11746883_a_at) / Fold change /veh ABCC12 (11746883_a_at) / RFU TMEM136 (11760407_x_at) / Fold change /veh TMEM136 (11760407_x_at) / RFU CLDN22 /// WWC2 (11732394_at) / Fold change /veh CLDN22 /// WWC2 (11732394_at) / RFU HLA-DPB1 (11760878_x_at) / Fold change /veh HLA-DPB1 (11760878_x_at) / RFU SPINT1 (11716480_a_at) / Fold change /veh SPINT1 (11716480_a_at) / RFU GAP43 (11754022_s_at) / Fold change /veh GAP43 (11754022_s_at) / RFU A4GNT (11735810_at) / Fold change /veh A4GNT (11735810_at) / RFU PRB3 (11715151_x_at) / Fold change /veh PRB3 (11715151_x_at) / RFU TUBB4B (11761932_at) / Fold change /veh TUBB4B (11761932_at) / RFU CAPN14 (11732068_a_at) / Fold change /veh CAPN14 (11732068_a_at) / RFU TMCC2 (11721928_a_at) / Fold change /veh TMCC2 (11721928_a_at) / RFU IRGQ (11745062_a_at) / Fold change /veh IRGQ (11745062_a_at) / RFU FAM174B (11720279_a_at) / Fold change /veh FAM174B (11720279_a_at) / RFU TMPRSS4 (11748680_a_at) / Fold change /veh TMPRSS4 (11748680_a_at) / RFU FAM212B (11763350_a_at) / Fold change /veh FAM212B (11763350_a_at) / RFU PLEKHG5 (11743358_a_at) / Fold change /veh PLEKHG5 (11743358_a_at) / RFU ZSCAN30 (11745921_a_at) / Fold change /veh ZSCAN30 (11745921_a_at) / RFU CMKLR1 (11741424_a_at) / Fold change /veh CMKLR1 (11741424_a_at) / RFU LOC101060620 /// MAPK8IP1 (11723275_at) / Fold change /veh LOC101060620 /// MAPK8IP1 (11723275_at) / RFU SPTSSB (11747773_x_at) / Fold change /veh SPTSSB (11747773_x_at) / RFU PRSS12 (11739890_at) / Fold change /veh PRSS12 (11739890_at) / RFU BIN1 (11741810_x_at) / Fold change /veh BIN1 (11741810_x_at) / RFU WNT11 (11732464_a_at) / Fold change /veh WNT11 (11732464_a_at) / RFU C10orf10 (11716521_a_at) / Fold change /veh C10orf10 (11716521_a_at) / RFU C5orf56 (11738089_at) / Fold change /veh C5orf56 (11738089_at) / RFU CYB561 (11721691_x_at) / Fold change /veh CYB561 (11721691_x_at) / RFU ANKRD19P (11752326_a_at) / Fold change /veh ANKRD19P (11752326_a_at) / RFU OR2T12 /// OR2T33 /// OR2T8 (11738714_s_at) / Fold change /veh OR2T12 /// OR2T33 /// OR2T8 (11738714_s_at) / RFU VCAN (11748164_a_at) / Fold change /veh VCAN (11748164_a_at) / RFU JSRP1 (11732532_at) / Fold change /veh JSRP1 (11732532_at) / RFU KRTAP10-11 (11738290_x_at) / Fold change /veh KRTAP10-11 (11738290_x_at) / RFU MYO3A (11730013_a_at) / Fold change /veh MYO3A (11730013_a_at) / RFU EBF3 (11725865_a_at) / Fold change /veh EBF3 (11725865_a_at) / RFU CAMK2N1 (11719241_x_at) / Fold change /veh CAMK2N1 (11719241_x_at) / RFU C5orf56 (11738088_a_at) / Fold change /veh C5orf56 (11738088_a_at) / RFU OLFML3 (11715873_a_at) / Fold change /veh OLFML3 (11715873_a_at) / RFU LOC100653217 /// NTM (11731650_a_at) / Fold change /veh LOC100653217 /// NTM (11731650_a_at) / RFU MAPK11 (11762145_a_at) / Fold change /veh MAPK11 (11762145_a_at) / RFU FIZ1 (11724087_x_at) / Fold change /veh FIZ1 (11724087_x_at) / RFU OASL (11726364_x_at) / Fold change /veh OASL (11726364_x_at) / RFU SOX15 (11748057_x_at) / Fold change /veh SOX15 (11748057_x_at) / RFU CD79A (11719716_a_at) / Fold change /veh CD79A (11719716_a_at) / RFU HIST1H1D (11736915_at) / Fold change /veh HIST1H1D (11736915_at) / RFU CASKIN2 (11723855_a_at) / Fold change /veh CASKIN2 (11723855_a_at) / RFU LOC730098 (11760151_x_at) / Fold change /veh LOC730098 (11760151_x_at) / RFU OR4N2 (11742367_at) / Fold change /veh OR4N2 (11742367_at) / RFU PRRT2 (11749266_a_at) / Fold change /veh PRRT2 (11749266_a_at) / RFU SNX32 (11753110_a_at) / Fold change /veh SNX32 (11753110_a_at) / RFU CDHR5 (11726645_a_at) / Fold change /veh CDHR5 (11726645_a_at) / RFU RCAN1 (11760418_a_at) / Fold change /veh RCAN1 (11760418_a_at) / RFU FAM167A (11723789_a_at) / Fold change /veh FAM167A (11723789_a_at) / RFU FAM26E (11764081_at) / Fold change /veh FAM26E (11764081_at) / RFU ISYNA1 (11749810_s_at) / Fold change /veh ISYNA1 (11749810_s_at) / RFU ACY1 (11761880_at) / Fold change /veh ACY1 (11761880_at) / RFU 11764098_at / Fold change /veh 11764098_at / RFU SAMD14 (11745864_x_at) / Fold change /veh SAMD14 (11745864_x_at) / RFU NPB (11741838_a_at) / Fold change /veh NPB (11741838_a_at) / RFU TMPRSS6 (11731388_a_at) / Fold change /veh TMPRSS6 (11731388_a_at) / RFU KRTAP10-2 (11738614_at) / Fold change /veh KRTAP10-2 (11738614_at) / RFU ARHGAP8 /// PRR5-ARHGAP8 (11727945_x_at) / Fold change /veh ARHGAP8 /// PRR5-ARHGAP8 (11727945_x_at) / RFU KRTAP5-7 /// NADSYN1 (11734609_at) / Fold change /veh KRTAP5-7 /// NADSYN1 (11734609_at) / RFU RASL12 (11751679_a_at) / Fold change /veh RASL12 (11751679_a_at) / RFU CDKN2B (11736163_a_at) / Fold change /veh CDKN2B (11736163_a_at) / RFU PRF1 (11729649_at) / Fold change /veh PRF1 (11729649_at) / RFU, ZNF638 /// ZNF638-IT1 / Fold change vs veh, ZNF638 /// ZNF638-IT1 / RFU, PANK3 / Fold change vs veh, PANK3 / RFU, SH3YL1 / Fold change vs veh, SH3YL1 / RFU, ZEB2 / Fold change vs veh, ZEB2 / RFU, NRIP1 / Fold change vs veh, NRIP1 / RFU, PTTG1IP / Fold change vs veh, PTTG1IP / RFU, CAPN2 / Fold change vs veh, CAPN2 / RFU, MED14 / Fold change vs veh, MED14 / RFU, SNORA58 / Fold change vs veh, SNORA58 / RFU, C1orf63 / Fold change vs veh, C1orf63 / RFU, LRRFIP1 / Fold change vs veh, LRRFIP1 / RFU, NDUFAF7 / Fold change vs veh, NDUFAF7 / RFU, SLC12A2 / Fold change vs veh, SLC12A2 / RFU, IBTK / Fold change vs veh, IBTK / RFU, ESF1 / Fold change vs veh, ESF1 / Fold change vs veh, TMEM50B / RFU, TAOK1 / Fold change vs veh, TAOK1 / RFU, ACBD3 / Fold change vs veh, ACBD3 / RFU, TMA16 / Fold change vs veh, TMA16 / RFU, RWDD3 / Fold change vs veh, RWDD3 / RFU, BCAT1 / Fold change vs veh, BCAT1 / RFU, EDEM3 / Fold change vs veh, EDEM3 / RFU, TMEM33 / Fold change vs veh, TMEM33 / RFU, WDR75 / Fold change vs veh, WDR75 / RFU, AHCTF1 / Fold change vs veh, AHCTF1 / RFU, TFRC / Fold change vs veh, TFRC / RFU, ZDHHC17 / Fold change vs veh, ZDHHC17 / RFU, NOM1 / Fold change vs veh, NOM1 / RFU, ARL8B / Fold change vs veh, ARL8B / RFU, ZBTB11 / Fold change vs veh, ZBTB11 / RFU, TAMM41 / Fold change vs veh, TAMM41 / RFU, KIAA1704 /// LOC100996395 / Fold change vs veh, KIAA1704 /// LOC100996395 / RFU, ING1 / Fold change vs veh, ING1 / RFU, TRMT61B / Fold change vs veh, TRMT61B / RFU, FUBP3 / Fold change vs veh, FUBP3 / RFU, TP53 / Fold change vs veh, TP53 / RFU, TNKS2 / Fold change vs veh, TNKS2 / RFU, ZFP14 / Fold change vs veh, ZFP14 / RFU, ACTR2 / Fold change vs veh, ACTR2 / RFU, PPP3R1 / Fold change vs veh, PPP3R1 / RFU, PIK3R1 / Fold change vs veh, PIK3R1 / RFU, HNRNPA1 / Fold change vs veh, HNRNPA1 / RFU, RNF170 / Fold change vs veh, RNF170 / RFU, ZNF28 / Fold change vs veh, ZNF28 / RFU, RNGTT / Fold change vs veh, RNGTT / RFU, OGT / Fold change vs veh, OGT / RFU, BRD1 / Fold change vs veh, BRD1 / RFU, MARS / Fold change vs veh, MARS / RFU, ZNF655 / Fold change vs veh, ZNF655 / RFU, FAHD1 / Fold change vs veh, FAHD1 / RFU, BDP1 / Fold change vs veh, BDP1 / RFU, LRRCC1 / Fold change vs veh, LRRCC1 / RFU, ARID1A / Fold change vs veh, ARID1A / RFU, ZNF146 / Fold change vs veh, ZNF146 / RFU, ZNF330 / Fold change vs veh, ZNF330 / RFU, GPN3 / Fold change vs veh, GPN3 / RFU, C9orf123 / Fold change vs veh, C9orf123 / RFU, N4BP2L2 / Fold change vs veh, N4BP2L2 / RFU, ARFIP1 / Fold change vs veh, ARFIP1 / RFU, FAM179B / Fold change vs veh, FAM179B / RFU, BCL10 / Fold change vs veh, BCL10 / RFU, UHRF1BP1L / Fold change vs veh, UHRF1BP1L / RFU, BET1 / Fold change vs veh, BET1 / RFU, CNOT2 / Fold change vs veh, CNOT2 / RFU, ZNF268 / Fold change vs veh, ZNF268 / Fold change vs veh, ZNF507 / RFU, DGCR2 / Fold change vs veh, DGCR2 / RFU, WDSUB1 / Fold change vs veh, WDSUB1 / Fold change vs veh, HSP90B1 /// MIR3652 / RFU, ADSS / Fold change vs veh, ADSS / RFU, GK / Fold change vs veh, GK / RFU, ZNF148 / Fold change vs veh, ZNF148 / RFU, TAF9 / Fold change vs veh, TAF9 / RFU, SLC1A5 / Fold change vs veh, SLC1A5 / RFU, SLMO2 / Fold change vs veh, SLMO2 / RFU, ABCC4 / Fold change vs veh, ABCC4 / RFU, LOC101060439 /// RAP1B / Fold change vs veh, LOC101060439 /// RAP1B / RFU, RFX7 / Fold change vs veh, RFX7 / RFU, GTPBP10 / Fold change vs veh, GTPBP10 / RFU, CNEP1R1 / Fold change vs veh, CNEP1R1 / RFU, BIVM-ERCC5 /// ERCC5 / Fold change vs veh, BIVM-ERCC5 /// ERCC5 / RFU, ILF3 / Fold change vs veh, ILF3 / RFU 11762660_at / Fold change /veh 11762660_at / RFU VCAN (11757783_s_at) / Fold change /veh VCAN (11757783_s_at) / RFU DDX43 (11728927_at) / Fold change /veh DDX43 (11728927_at) / RFU KRT8 (11758188_x_at) / Fold change /veh KRT8 (11758188_x_at) / RFU NKD1 (11759106_at) / Fold change /veh NKD1 (11759106_at) / RFU SRD5A1 (11742802_a_at) / Fold change /veh SRD5A1 (11742802_a_at) / RFU TPSAB1 /// TPSB2 (11721975_s_at) / Fold change /veh TPSAB1 /// TPSB2 (11721975_s_at) / RFU GSTM3 (11746129_a_at) / Fold change /veh GSTM3 (11746129_a_at) / RFU IL23R (11737362_x_at) / Fold change /veh IL23R (11737362_x_at) / RFU TMEM51 (11727254_a_at) / Fold change /veh TMEM51 (11727254_a_at) / RFU PIWIL2 (11732686_x_at) / Fold change /veh PIWIL2 (11732686_x_at) / RFU ORM1 (11744905_x_at) / Fold change /veh ORM1 (11744905_x_at) / RFU CCDC152 (11743942_at) / Fold change /veh CCDC152 (11743942_at) / RFU ECM1 (11717891_a_at) / Fold change /veh ECM1 (11717891_a_at) / RFU IL23R (11748794_a_at) / Fold change /veh IL23R (11748794_a_at) / RFU TNFAIP8L3 (11732012_x_at) / Fold change /veh TNFAIP8L3 (11732012_x_at) / RFU MBOAT4 (11741988_at) / Fold change /veh MBOAT4 (11741988_at) / RFU 11764193_at / Fold change /veh 11764193_at / RFU TMEM53 (11763286_at) / Fold change /veh TMEM53 (11763286_at) / RFU MAGEB2 (11727129_at) / Fold change /veh MAGEB2 (11727129_at) / RFU TMEM200A (11744735_a_at) / Fold change /veh TMEM200A (11744735_a_at) / RFU CCDC152 (11751479_a_at) / Fold change /veh CCDC152 (11751479_a_at) / RFU FAM211A (11726209_a_at) / Fold change /veh FAM211A (11726209_a_at) / RFU RGS16 (11746705_a_at) / Fold change /veh RGS16 (11746705_a_at) / RFU VCAN (11755009_s_at) / Fold change /veh VCAN (11755009_s_at) / RFU RHOB (11743442_s_at) / Fold change /veh RHOB (11743442_s_at) / RFU RGS16 (11720943_a_at) / Fold change /veh RGS16 (11720943_a_at) / RFU RGS16 (11720944_at) / Fold change /veh RGS16 (11720944_at) / RFU, VPS4B / Fold change vs veh, VPS4B / RFU, CREB1 / Fold change vs veh, CREB1 / RFU, DNAJC13 / Fold change vs veh, DNAJC13 / RFU, GNAQ / Fold change vs veh, GNAQ / RFU, CDK5R1 / Fold change vs veh, CDK5R1 / RFU, ZRANB3 / Fold change vs veh, ZRANB3 / RFU, CUL4A / Fold change vs veh, CUL4A / RFU, CCNY / Fold change vs veh, CCNY / RFU, UFL1 / Fold change vs veh, UFL1 / RFU, COG3 / Fold change vs veh, COG3 / RFU, DIAPH2 / Fold change vs veh, DIAPH2 / RFU, SKA2 / Fold change vs veh, SKA2 / RFU, AFF3 / Fold change vs veh, AFF3 / RFU, LMF1 / Fold change vs veh, LMF1 / RFU, IPO11 / Fold change vs veh, IPO11 / RFU, DFFB / Fold change vs veh, DFFB / RFU, FOXP1 / Fold change vs veh, FOXP1 / RFU, CARD8 / Fold change vs veh, CARD8 / RFU, STRN3 / Fold change vs veh, STRN3 / RFU, ADK / Fold change vs veh, ADK / RFU, RASSF2 / Fold change vs veh, RASSF2 / RFU, WIPF1 / Fold change vs veh, WIPF1 / RFU, LARP1B / Fold change vs veh, LARP1B / RFU, RASA1 / Fold change vs veh, RASA1 / RFU, RB1 / Fold change vs veh, RB1 / RFU, PPFIA1 / Fold change vs veh, PPFIA1 / RFU, MAT2A / Fold change vs veh, MAT2A / RFU, CCT5 / Fold change vs veh, CCT5 / RFU, WDR92 / Fold change vs veh, WDR92 / RFU, CUX1 / Fold change vs veh, CUX1 / RFU, TTC7A / Fold change vs veh, TTC7A / RFU, TMEM135 / Fold change vs veh, TMEM135 / RFU, DEPTOR / Fold change vs veh, DEPTOR / RFU, CPM / Fold change vs veh, CPM / RFU, DNAJB6 / Fold change vs veh, DNAJB6 / RFU, CACNA2D3 / Fold change vs veh, CACNA2D3 / RFU, DTX4 / Fold change vs veh, DTX4 / RFU, TFCP2 / Fold change vs veh, TFCP2 / RFU, GMCL1 /// GMCL1P1 / Fold change vs veh, GMCL1 /// GMCL1P1 / RFU, AEBP2 / Fold change vs veh, AEBP2 / RFU, SNHG1 /// SNORD22 /// SNORD25 /// SNORD26 /// SNORD27 /// SNORD28 /// SNORD29 /// SNORD31 / Fold change vs veh, SNHG1 /// SNORD22 /// SNORD25 /// SNORD26 /// SNORD27 /// SNORD28 /// SNORD29 /// SNORD31 / Fold change (Aza/veh), C12orf56 (ProbeSet 11735607_a_at) / Fold change (ACY-1035/veh), C12orf56 (ProbeSet 11735607_a_at) / Fold change (Aza/veh), FGFR1OP (ProbeSet 11751329_s_at) / Fold change (ACY-1035/veh), FGFR1OP (ProbeSet 11751329_s_at) / Fold change (Aza/veh), VPS36 (ProbeSet 11739960_a_at) / Fold change (ACY-1035/veh), VPS36 (ProbeSet 11739960_a_at) / RFU SYPL1 (11715823_x_at) / Fold change /veh SYPL1 (11715823_x_at) / RFU IGFBP7 (11715501_s_at) / Fold change /veh IGFBP7 (11715501_s_at) / RFU REEP3 (11722064_at) / Fold change /veh REEP3 (11722064_at) / RFU IGLL1 (11728026_x_at) / Fold change /veh IGLL1 (11728026_x_at): dose or concentration left out as unconfirmed
Settings: MV-4-11 cells, 48 hours

SMILES: Nc1ncn([C@@H]2O[C@H](CO)[C@@H](O)[C@H]2O)c(=O)n1 [azacitidine]
- RFU CAMK2N1 (11719241_x_at): 56.90 RFU
